Values quoted from earlier work, collected in patent publication US20100022462A1, “APPETITE S[…] COLON CLEANSING COMPOSITION” (priority 2008, published 2010).

Tested on: lipase
Settings: background statement on the marketed drug; no test conditions given

Structure (SMILES): CCCCCCCCCCC[C@@H](C[C@@H]1OC(=O)[C@H]1CCCCCC)OC(=O)[C@H](CC(C)C)NC=O [XENICAL, orlistat]
- decreasing dietary fat absorption: 30%
